Data reported in patent US20220193209A1, “COMPOSITIONS AND METHODS FOR REACTIVATING LATENT IMMUNODEFICIENCY VIRUS AND/OR TREATING IMMUNODEFICIENCY VIRUS INFECTION” (The J. David Gladstone institutes, a testamentary trust …, priority 2019, published 2022).

What was measured:
HIV LTR = experiment: Chromatin immunoprecipitation (ChIP) at the HIV LTR in J-Lat cells; type: cell-based, HIV-1
Experimental: J-Lat A2 and A72 cells were treated with TNFα (10 ng/ml) for 18 h. Cells were fixed with 1% formaldehyde (v/v) in fixation buffer (1 mM EDTA, 0.5 mM EGTA, 50 mM Hepes, pH 8.0, 100 mM NaCl), and fixation was stopped after 10 min by addition of glycine to 125 mM. The cell membrane was lysed for 15 min on ice (5 mM Pipes, pH 8.0, 85 mM KCl, 0.5% NP40, protease inhibitors). After washing with nuclear swell buffer (25 mM HEPES, pH 7.5, 4 mM KCl, 1 Mm DTT, 0.5% NP-40, 0.5 mM PMSF) and micrococcal nuclease (MNase) digestion buffer (20 mM Tris pH 7.5, 2.5 mM CaCl2), 5 mM NaCl, 1 mM DTT, 0.5% NP-40), the pellet was resuspended in MNase buffer (15 mM Tris-HCl, pH 7.5, 5 mM MgCl2, 1 mM CaCl2), and 25 mM NaCl). Subsequently, samples were incubated with MNase (New England Biolabs) for 10 min at RT. The reaction was quenched with 0.5 M EDTA and incubated on ice for 5 min. Cells were lysed (1% SDS, 10 mM EDTA, 50 mM Tris-HCl, pH 8.1, protease inhibitors), and chromatin DNA was sheared to 200-1000-bp average size through sonication (Ultrasonic Processor CP-130, Cole Parmer). Cellular debris was pelleted, and the supernatant was recovered. Protein A/G Sepharose beads were blocked with single-stranded salmon sperm DNA and BSA, washed and resuspended in immunoprecipitation buffer. Blocked protein A/G Sepharose beads were added to the digested chromatin fractions and rotated at 4° C. for 2 h to preclear chromatin. Lysates were incubated overnight at 4° C. with 5 μg of FOXO1, RelA, histone H4, H4K20me1, H4K20me2, H4K20me3 antibodies, or IgG control. After incubation with protein A/G agarose beads for 2 h and washing three times with low salt buffer (0.1% SDS, 1% Triton X-100, 2 mM EDTA, 20 mM Tris-HCl, pH 8.1, 150 mM NaCl), one time with high salt buffer (0.1% SDS, 1% Triton X-100, 2 mM EDTA, 20 mM Tris-HCl, pH 8.1, 500 mM NaCl) and twice with TE-buffer (1 mM EDTA, 10 mM Tris-HCl, pH 8.1), chromatin was eluted and recovered with Agencourt AMPure XP beads (Beckman Coulter). Bound chromatin and input DNA were treated with RNase H (New England Biolabs) and Proteinase K (Sigma-Aldrich) at 37° C. for 30 min. Immunoprecipitated chromatin was quantified by real-time PCR using the Maxima SYBR Green qPCR Master Mix (Thermo Scientific) and the ABI 7700 Sequence Detection System (Applied Biosystems). The SDS 2.4 software (Applied Biosystems) was used for analysis. The specificity of each PCR reaction was confirmed by melting curve analysis using the Dissociation Curve software (Applied Biosystems). All chromatin immunoprecipitations and qPCRs were repeated at least three times, and representative results were shown.
Because ATF4 can be recruited to the HIV LTR (Jiang, G. et al. Downloaded from. MBio 8, 1518-1534 (2018)) and the related human T-cell leukemia virus type 1 (HTLV-1) Reddy, T. et al. Oncogene 14, 2785-2792 (1997)), chromatin immunoprecipitation (ChIP) experiments were performed to test whether ATF4 binds the HIV LTR in response to FOXO1 inhibition. While low levels of ATF4 bound HIV LTR chromatin in untreated J-Lat cells, its recruitment was 3-fold enriched after AS1842856 treatment (FIG. 9, Panel A). […] The nuclear factor of activated T cells (NFAT) can occupy the NF-κB binding sites in the HIV LTR, and is activated through calcium mobilization after T cell activation rather than protein kinase C activation as for NF-κB. […]

Experimental for primary CD4+ T cells: Cell viability was measured with CellTiter-Blue Cell Viability Assay (Promega).
Histogram plot of percent live cells for each drug treatment relative to the control are shown (right side —right panel). Data are represented by mean±SD of four different donors.

CCn1cc(C(=O)O)c(=O)c2c(N)c(F)c(NC3CCCCC3)cc21 [AS1842856, 5-amino-7-(cyclohexylamino)-1-ethyl-6-fluoro-4-oxo-1,4-dihydro-quinoline-3-carboxylic acid]
primary T-cell viability (primary CD4+ T cells): No changes
NFAT at the HIV LTR (HIV LTR): markedly enriched
RNA polymerase II recruitment to the HIV promoter (HIV LTR): marked increase
RelA recruitment to the HIV LTR (HIV LTR): not recruited
ATF4 recruitment to HIV LTR chromatin (HIV LTR; 1000 nM vs untreated): 3 fold
